Residues, ends and D or L forms follow the SMILES beside them. *: point of attachment. Cbz = O=C(OCc1ccccc1)*
Tests used:
[1] = system: ERα protein in MCF7 cells; assay: Western blotting of ERα protein levels; format: cell-based, human; settings: for ERα protein levels under LMTK3 silencing with co-treatment: MCF7, LMTK3 siRNA plus compound
Method: (A) MCF7 cells (1×10^6) were plated in 10 cm^2 plates in phenol red-free DMEM containing 10% DSS. The following day, cells were transfected with 20 nM CT siRNA or LMTK3 siRNA for 72 h and then treated or not (ET-OH) with E2 (10 nM) for 24 h. Cells were harvested, lysed and equal protein amounts were subjected to Western Blotting analysis using the indicated antibodies. β-actin was used as a control for sample loading. (B) Quantitative analysis of ERα and LMTK3 protein levels is given as fold of control. […] (C) MCF7 cells (5×10^4) were plated in 24-well plates and transfected with 20 nM CT siRNA or LMTK3 siRNA for 48 h. Gene expression of ERα was measured by qRT-PCR.
(§1) Whole cell lysates were prepared using NP40 lysis buffer (50 mM Tris-HCl, pH 8.0, 150 mM NaCl, 10% (v/v) glycerol, 1% NP40, 5 mM dithiothreitol (DTT), 1 mM EDTA, 1 mM EGTA, 50 μM leupeptin and 30 μg/ml aprotinin). These extracts were then clarified by centrifugation at 15000 rpm for 15 min at 4° C. for western blotting. The bicinchoninic acid (BCA) protein assay (Pierce) was used to determine the protein concentration of the lysates. […] The membranes were then blocked in TBS containing 0.1% (v/v) Tween20 and 5% (w/v) non-fat milk for 1 h and subsequently probed overnight with different antibodies following extensive washing with TBS/Tween and incubation with HRP-conjugated goat anti-rabbit IgG or goat anti-mouse IgG (1:1000 dilution) for 45 mins. Enhanced chemiluminescence (ECL) detection then allowed detection of the immunocomplexes. The intensity of the bands were quantified using Image J software (NIH, Bethesda, Md.).
as §1, with “45 min.” for “45 mins.”, “the immuno-complexes.” for “the immunocomplexes.”, “bands was” for “bands were”

LMTK3 kinase domain = molecular target: T1, LMTK3 kinase domain (Homo sapiens, UniProt Q96Q04); assay: LMTK3 inhibitor screening assay (CisBio KinEASE STK S1 kit, ratiometric fluorescent read-out); format: biochemical; settings: for Average % Inhibition / Average pIC50: 10 nM LMTK3, 1 μM S1 peptide, ATP 10 μM; for Average pIC50: 120 mins at 37° C., N=5
T1 construct: GST (N); made in house; host or cells: insect cells
T1 sequence (Q96Q04 133-415): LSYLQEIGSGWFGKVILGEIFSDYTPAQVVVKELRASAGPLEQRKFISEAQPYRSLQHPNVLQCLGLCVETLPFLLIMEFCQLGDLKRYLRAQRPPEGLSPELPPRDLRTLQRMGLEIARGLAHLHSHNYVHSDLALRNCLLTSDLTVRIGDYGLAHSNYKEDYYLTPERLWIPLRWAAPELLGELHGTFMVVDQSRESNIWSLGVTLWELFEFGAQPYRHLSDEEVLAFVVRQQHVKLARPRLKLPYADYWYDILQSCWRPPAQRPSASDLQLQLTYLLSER
Method: This exemplary assay has been developed to find inhibitors of LMTK3. The LMTK3 kinase domain (amino acids 133-415 of the full length kinase sequence, with an N-terminal GST tag) was expressed in insect cells and isolated via the GST N-terminal epitope.
Kinase reactions are set up in the presence of 1% DMSO with ATP added at around KM (=10 μM). Kinase activity is monitored using the CisBio KinEASE STK S1 kit using a ratiometric fluorescent read-out at 665 and 620 nm. The assay uses 10 nM LMTK3, 1 μM S1 peptide, 10 mM MgCl2 in the manufacturer buffer with extension of reaction time to 120 mins at 37° C.
Screening was performed in 384 low volume black microtitre plates with a final volume of 20 μl. The reaction was stopped with the addition of EDTA and detection reagents and fluorescence read on Pherastar. Data was normalised to the high control as specified by no inhibition and the low controls, equating to no activity (absence of ATP). Inhibitor activity was determined using concentration response curves, and using a four parameter fit to identify pIC50 values. Assay robustness was calculated using Z prime.

LMTK3 gene expression = LMTK3 gene expression after E2 or tamoxifen; format: cell-based
Method: Total RNA was isolated using the RNeasy kit (Qiagen). Reverse transcription was performed using high capacity cDNA reverse transcription kit (Applied Biosystems). RT-qPCR analysis was performed on a 7900HT Thermocycler (Applied Biosystems) using TaqMan mastermix and primers for TFF1, PGR, GREB1, FOXO3, FOXM1, LMTK1, LMTK2, LMTK3, MCL1 and GAPDH cDNAs, purchased from Applied Biosystems.

[2] = system: Tamoxifen resistant cell lines (LCC9, MLET5, BT-474); assay: WST-1 cell proliferation assay in tamoxifen resistant cell lines; format: cell-based; settings: 20 nM siRNA, Tamoxifen 100 nM
Method: Tamoxifen resistant cell lines (LCC9, MLET5, BT-474) were transfected with 20 nM of control siRNA or LMTK3 siRNA in the presence or absence of Tamoxifen (100 nM). Cells were subjected to the WST-1 cell proliferation assay, on the day of transfection (day 0) and then consecutive 48 h intervals. Absorbance was measured at 460 nm. Results represent the mean of three experiments per cell line ±SE.
FIG. 28 Effects of LMTK3 silencing in tamoxifen-resistant cell lines. (a) BT-474, (b) MLET5 and, (c) LCC9 cells were transfected with LMTK3 siRNA in the presence or absence of tamoxifen (100 nM). Comparisons are shown amongst: i) siControl-transfected and tamoxifen treated cells (*), ii) siControl- and siLMTK3-transfected cells ($) and iii) tamoxifen treated and siLMTK3-transfected cells (p<0.05—Student's t test). Western blotting of AIB1 and p-ERα S118 protein expression levels are shown.
The colorimetric Rapid Cell Proliferation kit (Calbiochem, UK) was used. The assay is based on the incubation of cells with the tatrazolium salt WST-1, which is cleaved by mitochondrial dehydrogenases, functional only in viable cells. […] The following day, cells were incubated with the WST-1 for 30 min at 37° C., according to manufacturer's instructions, and the absorbance read with the microplate reader at 460 nm was considered to be Day 0. […] Readings were repeated consecutively in 48 h intervals. […]

COc1ccc2c(c1)c(C1=C(c3c[nH]c4ccccc34)C(=O)NC1=O)cn2CCCN(C)C [Go 6983]
ERα protein levels under LMTK3 silencing with co-treatment [1]: partly rescues the LMTK3 siRNA-induced down-regulation of ERα

C[C@]12CC[C@@H]3c4ccc(O)cc4CC[C@H]3[C@@H]1CC[C@@H]2O [E2, Estradiol]
decrease of ERα protein levels ([1]; MCF7, E2 10 nM 24 h or 20 nM siRNA 72 h): ~40%

CN[C@@H]1C[C@H]2O[C@@](C)([C@@H]1OC)n1c3ccccc3c3c4c(c5c6ccccc6n2c5c31)C(=O)NC4 [Staurosporine]
IC50 (LMTK3 kinase domain): 0.0024 nM
Average % Inhibition (LMTK3 kinase domain): 108.86%

CN(C)CCCn1cc(C2=C(c3c[nH]c4ccccc34)C(=O)NC2=O)c2ccccc21 [GF109203X]
Average % Inhibition (LMTK3 kinase domain): 107.89%
Average pIC50 (LMTK3 kinase domain): 9.88

CCCCCCOC(=O)[C@]1(O)C[C@@H]2O[C@@]1(C)n1c3ccccc3c3c4c(c5c6ccccc6n2c5c31)C(=O)NC4 [KT5720]
Average % Inhibition (LMTK3 kinase domain): 98.65%
Average pIC50 (LMTK3 kinase domain): 9.93

CC(C)C[C@@H](C=O)NC(=O)[C@H](CC(C)C)NC(=O)[C@H](CC(C)C)NC(=O)OCc1ccccc1 [MG132] (Cbz-Leu-Leu-Leu-aldehyde)
ERα protein levels under LMTK3 silencing with co-treatment [1]: partly rescued ERα degradation

CCCCCCCCCCCCCC(=O)O[C@@H]1[C@@H](C)[C@@]2(O)[C@@H](C=C(CO)C[C@]3(O)C(=O)C(C)=C[C@@H]23)[C@@H]2C(C)(C)[C@]12OC(C)=O [PMA]
ERα protein levels under LMTK3 silencing with co-treatment [1]: further degrades ERα

CC/C(=C(\c1ccccc1)c1ccc(OCCN(C)C)cc1)c1ccccc1 [Tamoxifen]
LMTK3 expression (LMTK3 gene expression): up-regulated
effect on growth of tamoxifen-resistant cell lines [2]: slightly affected basal cell growth
increase of ERα protein levels ([1]; MCF7, Tam 100 nM 24 h): ~50%

COC(=O)[C@@]1(O)C[C@H]2O[C@]1(C)n1c3ccccc3c3c4c(c5c6ccccc6n2c5c31)C(=O)NC4 [K-252a]
IC50 (LMTK3 kinase domain): 79.4 nM
Average % Inhibition (LMTK3 kinase domain): 98.91%

— US20130190237A1, “METHODS FOR CATEGORISING CANCER SUCH AS BREAST CANCER” (IMPERIAL INNOVATIONS LIMITED, priority 2010, published 2013)
